Data from publication PMC10780633, “Novel Multi-Target Agents Based on the Privileged Structure of 4-Hydroxy-2-quinolinone” (Molecules, 2023).
Values joined by “and” are separate entries in the source; they are usually repeats but may differ in a detail not shown here. Equal entries are not always repeated.

Key:
soybean lipoxygenase = biological target: T1, soybean lipoxygenase (Glycine max, UniProt P08170); assay: Soybean LOX inhibition in vitro (UV absorbance-based assay); format: biochemical
T1 construct: purchased Sigma Chemical, Co. (St. Louis, MO, USA)
T1 sequence (P08170 1-839): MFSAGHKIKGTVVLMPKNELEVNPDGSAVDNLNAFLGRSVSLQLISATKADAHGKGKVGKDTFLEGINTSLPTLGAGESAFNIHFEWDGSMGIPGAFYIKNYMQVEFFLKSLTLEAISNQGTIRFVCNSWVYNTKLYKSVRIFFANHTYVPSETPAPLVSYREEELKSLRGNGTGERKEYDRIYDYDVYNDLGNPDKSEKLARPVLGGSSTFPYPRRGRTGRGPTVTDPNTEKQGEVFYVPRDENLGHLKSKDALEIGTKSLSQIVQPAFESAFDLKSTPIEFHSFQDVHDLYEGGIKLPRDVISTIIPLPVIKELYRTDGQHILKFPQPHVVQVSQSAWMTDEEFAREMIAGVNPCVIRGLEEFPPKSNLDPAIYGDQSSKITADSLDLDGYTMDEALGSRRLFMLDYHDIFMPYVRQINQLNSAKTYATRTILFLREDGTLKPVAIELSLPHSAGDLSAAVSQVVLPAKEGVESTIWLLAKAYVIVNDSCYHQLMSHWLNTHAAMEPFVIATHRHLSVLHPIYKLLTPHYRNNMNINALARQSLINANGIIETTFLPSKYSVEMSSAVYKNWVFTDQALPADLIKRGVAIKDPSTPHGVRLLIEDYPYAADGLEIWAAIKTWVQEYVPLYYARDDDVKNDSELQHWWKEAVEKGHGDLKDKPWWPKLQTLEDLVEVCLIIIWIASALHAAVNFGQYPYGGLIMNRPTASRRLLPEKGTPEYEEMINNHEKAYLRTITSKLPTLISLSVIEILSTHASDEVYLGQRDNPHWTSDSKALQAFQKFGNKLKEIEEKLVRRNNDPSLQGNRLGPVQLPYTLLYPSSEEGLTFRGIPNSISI
Procedure: For this study, the UV absorbance-based soybean LOX assay was used.
The assay for the determination of the inhibition of soybean LOX was performed according to the methods of Hadjipavlou-Litina et al., which we have also used in our previous works.

[1] = Interaction with the stable free radical DPPH (reducing activity); conditions: 100 μM
Procedure: (§1) In this work, the carboxamides 3a–3u, the quinolinone–cinnamic or benzoic acid hybrids 11a–11g and the reverse amides 16a–16c were tested for their antioxidant activity via five in vitro techniques; (i) the interaction with the stable free radical 2,2-diphenyl-1-picrylhydrazyl (DPPH); (ii) the inhibition of lipid peroxidation; (iii) the hydroxyl radical scavenging ability; (iv) the 2,2-azino-bis(3-ethylbenzothiazoline-6-sulfonic acid (ABTS) radical cation (ABTS·^+) reduction; and (v) the superoxide anion radical scavenging ability.

[2] = Inhibition of lipid peroxidation of linoleic acid induced by AAPH radical; conditions: 100 μM
Procedure: as §1
The assay for the determination of the inhibition of linoleic acid peroxidation induced by the free radical initiator […](2-amidinopropane) dihydrochloride (AAPH) was performed according to the methods of Hadjipavlou-Litina et al., which we have also used in our previous works.

[3] = Competition with DMSO for hydroxyl radicals; conditions: 0.1 mM
Procedure: as §1
The assay was performed according to the methods of Pontiki et al. Trolox was used as a reference compound [78].

[4] = ABTS radical cation decolorization assay; conditions: 0.1 mM
Procedure: as §1
The experimental technique used in this section was performed according to the methods of Pontiki et al.. The results were compared to the appropriate standard inhibitor Trolox.

| IC50 (soybean lipoxygenase) | inhibition at 100 µM (soybean lipoxygenase; 0.1 mM) [%] | SMILES | Interaction with the Free Radical DPPH (%) ([1]; 20 min) | Interaction with the Free Radical DPPH (%) ([1]; 60 min) | Inhibition of Lipid Peroxidation of Linoleic Acid Induced by AAPH Radical (%) [2] [%] | OH% (hydroxyl radical scavenging) [3] [%] | ABTS% (ABTS radical cation decolorization) [4] [%] |
| --- | --- | --- | --- | --- | --- | --- | --- |
| 81 µM | – | CCCC(=O)Nc1c(O)c2ccccc2n(C)c1=O [Compound 16a, N-(4-hydroxy-1-methyl-2-oxo-1,2-dihydroquinolin-3-yl)butyramide] | 24.0% | 31.0 | 83.0 | – | – |
| 100 µM | – | Cc1ccc(C(=O)Nc2c(O)c3ccccc3n(C)c2=O)cc1 [Compound 16b, N-(4-hydroxy-1-methyl-2-oxo-1,2-dihydroquinolin-3-yl)-4-methylbenzamide] | 27.0% | 32.0 | 88.0 | – | – |
| 82.5 µM | – | Cn1c(=O)c(NC(=O)c2ccccc2O)c(O)c2ccccc21 [Compound 16c, 2-hydroxy-N-(4-hydroxy-1-methyl-2-oxo-1,2-dihydroquinolin-3-yl)benzamide] | 25.0% | 28.0 | 88.0 | – | – |

More lines, now with the values behind:

| SMILES | IC50 (soybean lipoxygenase) | inhibition at 100 µM (soybean lipoxygenase; 0.1 mM) [%] | Interaction with the Free Radical DPPH (%) ([1]; 20 min) | Interaction with the Free Radical DPPH (%) ([1]; 60 min) | Inhibition of Lipid Peroxidation of Linoleic Acid Induced by AAPH Radical (%) [2] [%] | OH% (hydroxyl radical scavenging) [3] [%] | ABTS% (ABTS radical cation decolorization) [4] [%] |
| --- | --- | --- | --- | --- | --- | --- | --- |
| CCn1c(=O)c(C(=O)NCCNC(=O)c2ccccc2)c(O)c2ccccc21 [Compound 11c, N-(2-benzamidoethyl)-1-ethyl-4-hydroxy-2-oxo-1,2-dihydroquinoline-3-carboxamide] | 57.5 µM | – | 2.0% | 2.0 | 91.0 | – | – |
| CCn1c(=O)c(C(=O)NCCNC(=O)/C=C/c2ccc(OC(C)=O)cc2)c(O)c2ccccc21 [Compound 11d, (E)-4-(3-((2-(1-ethyl-4-hydroxy-2-oxo-1,2-dihydroquinoline-3-carboxamido)ethyl)amino)-3-oxoprop-1-en-1-yl)phenyl acetate] | – | 5 | 3.0% | 2.0 | 94.0 | – | – |
| CCn1c(=O)c(C(=O)NCCNC(=O)/C=C/c2ccc(OC(C)=O)c(OC)c2)c(O)c2ccccc21 [Compound 11e, (E)-4-(3-((2-(1-ethyl-4-hydroxy-2-oxo-1,2-dihydroquinoline-3-carboxamido)ethyl)amino)-3-oxoprop-1-en-1-yl)-2-methoxyphenyl acetate] | 52 µM and 52.5 µM | – | 3.0% | 5.0 | 97.0 | – | – |
| CCn1c(=O)c(C(=O)NCCNC(=O)/C=C/c2ccc(OC)cc2)c(O)c2ccccc21 [Compound 11f, (E)-1-ethyl-4-hydroxy-N-(2-(3-(4-methoxyphenyl)acrylamido)ethyl)-2-oxo-1,2-dihydroquinoline-3-carboxamide] | 70 µM | – | 2.0% | 4.0 | 93.0 | – | – |
| CCn1c(=O)c(C(=O)NCCNC(=O)/C=C/c2ccccc2)c(O)c2ccccc21 [Compound 11g, (E)-N-(2-cinnamamidoethyl)-1-ethyl-4-hydroxy-2-oxo-1,2-dihydroquinoline-3-carboxamide] | 85.5 µM | – | no | 2.0 | 97.0 | – | – |
| C[C@H](Cc1ccc(O)c(O)c1)[C@@H](C)Cc1ccc(O)c(O)c1 [NDGA, nordihydroguaiaretic acid, reference compound] | – | – | 83.0% | 94.0 | – | – | – |
| Cc1c(C)c2c(c(C)c1O)CCC(C)(C(=O)O)O2 (stereo not shown) [Trolox, reference compound] | – | – | – | – | 88.0 | 82.0 | 93.0 |
